How the values were obtained:
class Ia RNR (NrdA) = test: NrdA expression by Western immunoblot; format: cell-based, P. aeruginosa PAO1; conditions: 5 mM for 3 h, compared to the negative control
[1] = system: P. aeruginosa purine deoxyribonucleotide levels (bacterial RNR); test: DPA assay for dNTP quantification; format: cell-based, P. aeruginosa PAO1; conditions: 5 mM for 3 h, exponential phase, compared to negative control
[2] = system: P. aeruginosa PAO1 static biofilms; test: Static biofilm assay, P. aeruginosa; format: cell-based, Pseudomonas aeruginosa
[3] = system: P. aeruginosa continuous-flow biofilms; test: Flow cell biofilm assay; format: cell-based, Pseudomonas aeruginosa; conditions: COMSTAT analysis
[4] = system: B. anthracis Sterne 7700 pXO1–/pXO2–; test: microbe, parasite or virus in culture; format: cell-based; conditions: Bacillus anthracis, 8 h, read-out: MIC50 Gram-positive Bant
Staph. aureus biofilm = test: Static biofilm assay, Staph. aureus; format: cell-based, Staphylococcus aureus; conditions: treating with CIP

Cc1cc(F)ccc1CNO [Compound 12, N-(4-Fluoro-2-methylbenzyl)hydroxylamine]
induction of NrdA expression (fold) (class Ia RNR (NrdA)): 3 | reduction of dNTP levels [1]: 67.50% | reduction of established biofilm ([2]; after 72 h of treatment, highest concentrations): above 55% | decrease of biomass and average thickness [3]: more than 30%

COc1ccc(CNO)c(C)c1 [Compound 17, N-(4-Methoxy-2-methylbenzyl)hydroxylamine]
MIC50 [4]: < 15 µg/mL

O=C(O)c1cn(C2CC2)c2cc(N3CCNCC3)c(F)cc2c1=O [CIP, ciprofloxacin, reference compound]
reduction of preestablished biofilm ([2]; CIP 0.5 μg/mL, positive control): more than 85% | reduction of Staph. aureus biofilm (Staph. aureus biofilm): around 60%

NC(=O)NO [HU, hydroxyurea, reference compound]
reduction of dNTP levels [1]: 65.45%

— article PMC6643834 (ACS Omega, 2018)
